In brackets after ≈: the same amount, converted by molar mass. Activity calls are given as the source filed them. No cut-off for these calls is given here.
Assays:
[1] = Inhibition of Inward-rectifier potassium channel (unknown origin); design: species or system Homo sapiens
[2] = Inhibition of VZV DNA polymerase extracted from baculovirus infected Sf21 cells using Heterodimeric nucleic acid as substrate preincubated with enzyme for 30 mins followed by substrate and dATP addition measured after 60 mins by biotinylated UTP incorporation based AlphaLISA assay; design: species or system Human alphaherpesvirus 3
[3] = tested on: Human alphaherpesvirus 3; assay: Antiviral activity against VZV Street infected in human MRC5 cells assessed as reduction in viral replication incubated for 72 hrs by qRT-PCR analysis; type: functional, organism-based; details: Human alphaherpesvirus 3, Street, MRC5, 72 h
[4] = biological target: Voltage-dependent L-type calcium channel subunit alpha-1C (Homo sapiens, UniProt Q13936); assay: Inhibition of Cav1.2 (unknown origin)
[5] = Unbound clearance in Wistar rat at 0.05 mg/kg,iv administration; type: ADME, organism-based; details: in vivo
[6] = Unbound fraction in Wistar rat plasma at 0.05 mg/kg,iv or 10 mg/kg,po administration; type: ADME, organism-based
[7] = Unbound AUC in Wistar rat at 0.05 mg/kg,iv or 10 mg/kg,po administration; type: ADME, organism-based; details: in vivo
[8] = tested on: Human alphaherpesvirus 2; assay: Antiviral activity against HSV-2 G strain infected in African green monkey Vero cells assessed as reduction in viral replication incubated for 72 hrs by qRT-PCR analysis; type: functional, organism-based
[9] = Metabolic stability in human liver microsomes assessed as intrinsic clearance; type: ADME, Microsome; details: read-out: CLH
[10] = Inhibition of HCMV DNA polymerase extracted from baculovirus infected Sf21 cells using Heterodimeric nucleic acid as substrate preincubated with enzyme for 30 mins followed by substrate and dATP addition measured after 60 mins by biotinylated UTP incorporation based AlphaLISA assay; design: species or system Human betaherpesvirus 5
[11] = MRT in Wistar rat at 0.05 mg/kg,iv or 10 mg/kg,po administration; type: ADME, organism-based; details: in vivo
[12] = tested on: Human betaherpesvirus 5; assay: Antiviral activity against HCMV AD169 infected in human MRC5 cells assessed as reduction in viral replication incubated for 72 hrs in presence of 50 % serum by qRT-PCR analysis; type: functional, organism-based
[13] = Oral bioavailability in Wistar rat at 10 mg/kg administration; type: ADME, organism-based; details: in vivo
[14] = Solubility in PBS at pH 7; type: physicochemical
[15] = Unbound volume of distribution in Wistar rat at 0.05 mg/kg,iv or 10 mg/kg,po administration; type: ADME, organism-based; details: in vivo
[16] = tested on: Human alphaherpesvirus 1; assay: Antiviral activity against HSV-1 F strain infected in African green monkey Vero cells assessed as reduction in viral replication incubated for 72 hrs by qRT-PCR analysis; type: functional, organism-based
[17] = biological target: Sodium channel protein type 5 subunit alpha (Homo sapiens, UniProt Q14524); assay: Inhibition of Nav1.5 (unknown origin)
[18] = tested on: Human betaherpesvirus 5; assay: Antiviral activity against HCMV AD169 infected in human MRC5 cells assessed as reduction in viral replication incubated for 72 hrs in presence of 10 % serum by qRT-PCR analysis; type: functional, organism-based; details: Human betaherpesvirus 5, AD169, MRC5, 72 h
[19] = tested on: Human alphaherpesvirus 3; assay: Antiviral activity against VZV Street infected in human MeWo cells assessed as reduction in viral replication incubated for 72 hrs by qRT-PCR analysis; type: functional, organism-based
[20] = tested on: Cytomegalovirus; assay: Antiviral activity against Cytomegalovirus Smith intraperitoneally infected in BALB/c mouse assessed as reduction in viral burden in salivary gland at 25 mg/kg,ip qd administration measured after 10 days by plaque assay; type: functional, organism-based; details: time 10.0 day
[21] = tested on: Cytomegalovirus; assay: Antiviral activity against Cytomegalovirus Smith intraperitoneally infected in BALB/c mouse assessed as reduction in viral burden in salivary gland at 50 mg/kg,po bid administration measured after 10 days by plaque assay; type: functional, organism-based; details: route ip, time 10.0 day
[22] = biological target: Voltage-gated inwardly rectifying potassium channel KCNH2 (Homo sapiens, UniProt Q12809); assay: Inhibition of hERG by patch-clamp assay; type: toxicity
[23] = Unbound clearance in Wistar rat at 3 mg/kg,iv administration; type: ADME, organism-based; details: in vivo
[24] = MRT in Wistar rat at 3 mg/kg,iv or 10 mg/kg,po administration; type: ADME, organism-based; details: in vivo
[25] = Unbound fraction in Wistar rat plasma at 3 mg/kg,iv or 10 mg/kg,po administration; type: ADME, organism-based
[26] = Unbound volume of distribution in Wistar rat at 3 mg/kg,iv or 10 mg/kg,po administration; type: ADME, organism-based; details: in vivo
[27] = Unbound AUC in Wistar rat at 3 mg/kg,iv or 10 mg/kg,po administration; type: ADME, organism-based; details: in vivo
[28] = tested on: Human alphaherpesvirus 1; assay: Antiviral activity against HSV-1 F strain intranasally infected in BALB/c mouse assessed as increase in mouse survival rate at 120 mg/kg,po bid administrated 2 days before viral infection measured after 2 days; type: functional, organism-based; details: time 2.0 day
[29] = Human alphaherpesvirus 2, G strain, Vero, 72 h, read-out: EC50
[30] = Human betaherpesvirus 5, AD169, MRC5, 72 h, read-out: EC50
[31] = Human alphaherpesvirus 1, F strain, Vero, 72 h, read-out: EC50
[32] = Human alphaherpesvirus 3, Street, MeWo, 72 h, read-out: EC50

Sequence of Sodium channel protein type 5 subunit alpha (Q14524 whole entry): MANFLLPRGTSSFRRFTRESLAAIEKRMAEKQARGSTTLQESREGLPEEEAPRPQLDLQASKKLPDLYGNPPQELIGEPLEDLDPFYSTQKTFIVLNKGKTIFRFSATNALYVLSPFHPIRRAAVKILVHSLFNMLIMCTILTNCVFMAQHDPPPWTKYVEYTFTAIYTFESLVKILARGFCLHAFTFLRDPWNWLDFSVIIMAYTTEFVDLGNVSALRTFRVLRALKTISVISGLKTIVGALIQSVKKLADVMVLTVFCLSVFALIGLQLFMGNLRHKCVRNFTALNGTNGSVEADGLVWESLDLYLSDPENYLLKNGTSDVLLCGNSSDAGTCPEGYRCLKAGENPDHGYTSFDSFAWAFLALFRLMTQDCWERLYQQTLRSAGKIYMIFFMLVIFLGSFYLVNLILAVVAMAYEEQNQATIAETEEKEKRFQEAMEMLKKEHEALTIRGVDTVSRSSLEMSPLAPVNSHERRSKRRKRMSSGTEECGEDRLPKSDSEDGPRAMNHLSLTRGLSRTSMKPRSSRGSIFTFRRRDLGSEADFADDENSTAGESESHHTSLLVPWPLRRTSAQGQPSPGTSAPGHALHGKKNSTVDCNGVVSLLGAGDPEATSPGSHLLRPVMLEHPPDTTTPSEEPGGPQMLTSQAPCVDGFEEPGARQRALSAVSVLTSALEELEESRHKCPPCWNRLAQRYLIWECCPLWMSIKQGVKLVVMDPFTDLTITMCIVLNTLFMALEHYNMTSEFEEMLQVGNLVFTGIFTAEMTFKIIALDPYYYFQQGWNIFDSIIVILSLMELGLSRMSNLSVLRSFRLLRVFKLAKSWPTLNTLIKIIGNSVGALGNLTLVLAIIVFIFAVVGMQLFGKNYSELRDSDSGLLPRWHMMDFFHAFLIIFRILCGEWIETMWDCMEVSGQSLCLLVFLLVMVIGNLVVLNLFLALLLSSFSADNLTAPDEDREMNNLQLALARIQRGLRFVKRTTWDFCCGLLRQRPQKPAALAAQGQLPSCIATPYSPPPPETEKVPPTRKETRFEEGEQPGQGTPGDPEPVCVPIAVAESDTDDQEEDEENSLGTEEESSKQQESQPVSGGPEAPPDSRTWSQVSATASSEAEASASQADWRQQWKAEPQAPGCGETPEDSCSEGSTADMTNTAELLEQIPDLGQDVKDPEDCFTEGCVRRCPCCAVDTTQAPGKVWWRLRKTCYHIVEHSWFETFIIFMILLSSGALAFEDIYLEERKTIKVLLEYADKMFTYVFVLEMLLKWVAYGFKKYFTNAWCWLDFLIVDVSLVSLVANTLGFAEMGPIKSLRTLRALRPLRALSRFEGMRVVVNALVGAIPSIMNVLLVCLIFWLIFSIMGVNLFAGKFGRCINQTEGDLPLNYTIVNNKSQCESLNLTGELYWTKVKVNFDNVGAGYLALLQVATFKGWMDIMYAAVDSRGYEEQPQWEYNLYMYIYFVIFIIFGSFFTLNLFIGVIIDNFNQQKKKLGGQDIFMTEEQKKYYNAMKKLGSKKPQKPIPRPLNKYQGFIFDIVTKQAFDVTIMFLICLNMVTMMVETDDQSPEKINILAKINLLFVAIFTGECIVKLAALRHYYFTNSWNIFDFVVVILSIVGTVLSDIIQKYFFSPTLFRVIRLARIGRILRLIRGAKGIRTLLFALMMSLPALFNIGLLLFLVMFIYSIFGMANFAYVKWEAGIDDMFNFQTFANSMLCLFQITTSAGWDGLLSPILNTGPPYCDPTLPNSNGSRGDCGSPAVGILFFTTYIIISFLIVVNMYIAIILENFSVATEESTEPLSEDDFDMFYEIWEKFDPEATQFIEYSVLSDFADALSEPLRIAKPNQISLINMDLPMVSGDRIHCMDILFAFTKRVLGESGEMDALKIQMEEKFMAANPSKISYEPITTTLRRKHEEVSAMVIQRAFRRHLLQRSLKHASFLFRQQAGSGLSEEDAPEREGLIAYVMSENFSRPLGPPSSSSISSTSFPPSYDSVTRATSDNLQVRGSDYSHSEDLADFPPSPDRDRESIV
Sequence of Voltage-dependent L-type calcium channel subunit alpha-1C (Q13936 whole entry): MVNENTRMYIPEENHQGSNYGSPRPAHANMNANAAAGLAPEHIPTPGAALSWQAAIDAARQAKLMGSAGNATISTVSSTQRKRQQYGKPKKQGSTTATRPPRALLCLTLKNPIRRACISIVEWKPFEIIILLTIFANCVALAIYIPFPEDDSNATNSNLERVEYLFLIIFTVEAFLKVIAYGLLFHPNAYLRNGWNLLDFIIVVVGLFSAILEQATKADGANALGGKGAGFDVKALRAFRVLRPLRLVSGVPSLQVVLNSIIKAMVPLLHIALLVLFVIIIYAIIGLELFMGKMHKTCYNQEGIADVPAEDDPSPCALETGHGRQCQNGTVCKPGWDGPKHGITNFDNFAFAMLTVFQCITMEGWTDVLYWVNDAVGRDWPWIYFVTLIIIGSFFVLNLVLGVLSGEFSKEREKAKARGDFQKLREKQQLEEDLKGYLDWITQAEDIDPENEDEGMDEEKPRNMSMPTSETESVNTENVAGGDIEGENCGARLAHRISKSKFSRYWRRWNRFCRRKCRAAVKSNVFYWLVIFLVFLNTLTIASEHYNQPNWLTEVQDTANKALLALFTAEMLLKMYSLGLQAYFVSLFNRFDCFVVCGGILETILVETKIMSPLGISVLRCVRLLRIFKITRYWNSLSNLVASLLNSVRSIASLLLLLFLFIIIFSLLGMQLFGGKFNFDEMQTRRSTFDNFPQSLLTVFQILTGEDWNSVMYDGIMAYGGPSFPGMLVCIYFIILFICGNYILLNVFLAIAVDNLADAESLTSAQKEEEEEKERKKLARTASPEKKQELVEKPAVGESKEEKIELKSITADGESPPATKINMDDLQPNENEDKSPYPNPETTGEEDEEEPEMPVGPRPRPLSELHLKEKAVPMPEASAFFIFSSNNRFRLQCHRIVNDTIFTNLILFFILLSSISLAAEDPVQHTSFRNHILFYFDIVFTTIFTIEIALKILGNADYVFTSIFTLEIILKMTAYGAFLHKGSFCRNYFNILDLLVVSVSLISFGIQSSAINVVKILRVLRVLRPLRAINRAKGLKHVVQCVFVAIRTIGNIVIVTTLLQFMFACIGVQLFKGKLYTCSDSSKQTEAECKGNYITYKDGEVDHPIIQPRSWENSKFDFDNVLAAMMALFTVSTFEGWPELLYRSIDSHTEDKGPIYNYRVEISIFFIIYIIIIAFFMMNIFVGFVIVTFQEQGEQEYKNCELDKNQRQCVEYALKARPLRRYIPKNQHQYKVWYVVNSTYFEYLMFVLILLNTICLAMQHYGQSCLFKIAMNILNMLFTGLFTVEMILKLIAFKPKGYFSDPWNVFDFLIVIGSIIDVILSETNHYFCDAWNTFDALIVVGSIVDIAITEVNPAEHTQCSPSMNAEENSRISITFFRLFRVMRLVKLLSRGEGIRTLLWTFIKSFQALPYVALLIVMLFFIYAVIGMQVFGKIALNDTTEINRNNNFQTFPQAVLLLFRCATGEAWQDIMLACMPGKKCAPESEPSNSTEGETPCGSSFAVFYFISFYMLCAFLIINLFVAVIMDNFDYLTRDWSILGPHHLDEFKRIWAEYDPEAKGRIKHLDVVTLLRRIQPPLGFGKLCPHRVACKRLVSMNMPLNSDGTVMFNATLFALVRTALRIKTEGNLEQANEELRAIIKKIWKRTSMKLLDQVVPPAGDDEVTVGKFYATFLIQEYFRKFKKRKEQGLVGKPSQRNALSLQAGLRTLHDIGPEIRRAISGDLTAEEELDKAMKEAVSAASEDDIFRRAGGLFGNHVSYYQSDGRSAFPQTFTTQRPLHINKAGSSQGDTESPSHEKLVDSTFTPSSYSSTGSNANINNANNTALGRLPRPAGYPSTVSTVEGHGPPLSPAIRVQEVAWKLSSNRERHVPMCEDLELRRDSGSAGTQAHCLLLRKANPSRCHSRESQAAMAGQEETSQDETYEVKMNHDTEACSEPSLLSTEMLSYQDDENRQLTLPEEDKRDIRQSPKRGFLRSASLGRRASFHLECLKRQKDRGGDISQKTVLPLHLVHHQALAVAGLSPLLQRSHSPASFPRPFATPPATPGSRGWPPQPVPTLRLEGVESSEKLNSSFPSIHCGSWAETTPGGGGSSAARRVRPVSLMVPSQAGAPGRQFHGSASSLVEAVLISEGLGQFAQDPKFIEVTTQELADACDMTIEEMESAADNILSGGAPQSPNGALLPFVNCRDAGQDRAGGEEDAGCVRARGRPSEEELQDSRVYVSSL

| Structure (SMILES) | IC50 [1] [nM] | IC50 [2] [nM] | EC50 [3] [nM] | IC50 [4] [nM] | EC50 [8, 29] [nM] | IC50 [10] [nM] | EC50 [12, 30] [nM] | solubility [14] [µM] | EC50 [16, 31] [nM] | IC50 [17] [nM] | EC50 [8] | EC50 [18] [nM] | EC50 [16] | also measured |
| --- | --- | --- | --- | --- | --- | --- | --- | --- | --- | --- | --- | --- | --- | --- |
| COc1cc(NC(=O)Cc2ccc(Br)cc2)ccc1C[C@H]1COC(=O)N1 | 21100 | < 4 | 231 | 11100 | 110 | < 4 | 420 | 90 (≈ 37.7 µg/mL) | 124 | 12100 |  |  |  | CL free [5]: 1168 mL/min/kg; fraction unbound [6]: 0.022; fAUC [7]: 0.002 µM·h; CLint scaled [9]: < 16 mL/min/kg; MRT [11]: 54 min; bioavailability [13]: 23%; Vdu [15]: 68 L/kg |
| COc1cc(NC(=O)Cc2ccc(Cl)cc2)ncc1C[C@H]1COC(=O)N1 |  | 6290 | > 80200 |  |  | 15900 |  | < 2 |  |  | Not Active | 51200 | Not Active |  |
| O=C(Nc1ccc(Cl)cc1)Nc1ccc(C[C@H]2COC(=O)N2)cc1 |  | 210 |  |  |  | 480 |  |  |  |  | Not Active | 1110 | Not Active | EC50 [19]: Not Active |
| O=C1N[C@@H](Cc2ccc3c(c2)CCN(Cc2ccc(Cl)cc2)C3=O)CO1 |  | 40300 |  |  |  | 27600 |  |  |  |  | Not Active | 44200 | Not Active | EC50 [19]: Not Active |
| COc1cc(NC(=O)Cc2ccc(Cl)cc2Cl)ccc1C[C@H]1COC(=O)N1 | 20900 | 12 |  | 9600 | 222 | 16 | 349 | 28 (≈ 11.5 µg/mL) | 198 | 8200 |  |  |  | CL free [5]: 720 mL/min/kg; fraction unbound [6]: 0.022; fAUC [7]: 0.003 µM·h; CLint scaled [9]: 20 mL/min/kg; MRT [11]: 42 min; EC50 [19, 32]: 154 nM; Vdu [15]: 33 L/kg |
| COc1cc(NC(=O)Cc2ccc(OC(F)(F)F)cc2)ccc1C[C@H]1COC(=O)N1 |  | 1690 | 64500 |  |  | 1290 |  |  |  |  | Not Active |  | Not Active | EC50 [12]: Not Active |
| Nc1nc2c(ncn2COC(CO)CO)c(=O)[nH]1 |  |  |  |  |  |  |  |  |  |  |  |  |  | Activity [20]: inactive; Activity [21]: inactive |
| COc1cc(NC(=O)Cc2ccc(S(F)(F)(F)(F)F)cc2)ccc1C[C@H]1COC(=O)N1 |  | 2220 | 52700 |  |  | 944 |  |  |  |  | Not Active |  | Not Active | EC50 [12]: Not Active |
| COc1nc(NC(=O)Cc2ccc(Cl)cc2)cnc1C[C@H]1COC(=O)N1 |  | 23800 | > 80200 |  |  | 24100 |  |  |  |  | Not Active | > 80200 | Not Active |  |
| COc1nc(NC(=O)Cc2ccc(Cl)cc2)ccc1C[C@H]1COC(=O)N1 | 14200 | 15 |  | 13500 | 85 | 44 | 249 |  | 70 | 10000 |  |  |  | IC50 [22]: 16000 nM; CL free [23]: 444 mL/min/kg; bioavailability [13]: 62%; MRT [24]: 36 min; EC50 [19, 32]: 46 nM; fraction unbound [25]: 0.025; Vdu [26]: 15 L/kg; fAUC [27]: 0.299 µM·h |
| Nc1nc2c(ncn2COCCO)c(=O)[nH]1 |  |  |  |  |  |  |  |  |  |  |  |  |  | Activity [28]: Active |
| COc1cc(NC(=O)Cc2ccc(Cl)cc2)ccc1C[C@H]1COC(=O)N1 | 24500 | 17 |  | 12900 | 170 | 49 | 370 | 161 (≈ 60.3 µg/mL) | 100 | 10500 |  |  |  | IC50 [22]: 20000 nM; CL free [23]: 605 mL/min/kg; CLint scaled [9]: 16 mL/min/kg; bioavailability [13]: 27%; MRT [24]: 42 min; EC50 [19, 32]: 97 nM; fraction unbound [25]: 0.027; Vdu [26]: 24 L/kg; fAUC [27]: 0.228 µM·h |

— ChEMBL document CHEMBL5579865, “Discovery of Broad-Spectrum Herpes Antiviral Oxazolidinone Amide Derivatives and Their Structure-Activity Relationships” (ACS Med Chem Lett, 2024)
